From publication PMC4132742, “Inhibition of RNA binding to hepatitis C virus RNA-dependent RNA polymerase: a new mechanism for antiviral intervention” (Nucleic Acids Research, 2014)
Like-named read-outs stand apart in the source and are kept apart here.

Columns and labels:
HCV-NS5BΔ21 RdRp mutants [1] = type: biochemical, hepatitis C virus; conditions: S96A and G557A mutants
Text: (§1) The cell-free HCV-NS5BΔ21 polymerase assay is based on the real-time measurement of the amount of double-stranded RNA synthesized in the presence of HCV-NS5BΔ21, a homopolymeric RNA template (poly U or poly C, GE Healthcare, Chalfont St. Giles, UK) and the corresponding nucleotide, by means of an intercalating agent (SYBR® Green, Applied Biosystems, Carlsbad, CA, USA), as previously described ([20]). For screening, HCV-NS5BΔ21 polymerase activity was quantified by the slope of fluorescence increase in the presence of 20 μM of the tested flavonoid compounds and compared with the control reaction containing no inhibitor. […] The reported values are the average of three independent measurements performed in duplicate. For kinetics analysis, initial reaction velocities were measured at different nucleotide (adenosine triphosphate (ATP) or GTP) and studied compound concentrations, without pre-incubation and in the presence of 50 μg/ml of the corresponding homopolymeric RNA template (Poly U and Poly C, respectively). The concentration of NS5BΔ21 (J4 strain, genotype 1b) in the reaction was 0.1 mg/ml. Kinetics data were graphically represented as double reciprocal plots. Data points were fitted by linear regression to identify the inhibition mode of the compound.

HCV-NS5BΔ21 RdRp mutants [2] = molecular target: T1, HCV-NS5BΔ21 RdRp mutants (Hepatitis C virus genotype 1b, UniProt O92972, V2535I); type: biochemical; conditions: enzyme assay and genotype 1b subgenomic replicon, data not shown
T1 construct: His6 (N); made in house; host or cells: Escherichia coli C41(DE3)
T1 sequence (O92972 2420-2989 V2535I): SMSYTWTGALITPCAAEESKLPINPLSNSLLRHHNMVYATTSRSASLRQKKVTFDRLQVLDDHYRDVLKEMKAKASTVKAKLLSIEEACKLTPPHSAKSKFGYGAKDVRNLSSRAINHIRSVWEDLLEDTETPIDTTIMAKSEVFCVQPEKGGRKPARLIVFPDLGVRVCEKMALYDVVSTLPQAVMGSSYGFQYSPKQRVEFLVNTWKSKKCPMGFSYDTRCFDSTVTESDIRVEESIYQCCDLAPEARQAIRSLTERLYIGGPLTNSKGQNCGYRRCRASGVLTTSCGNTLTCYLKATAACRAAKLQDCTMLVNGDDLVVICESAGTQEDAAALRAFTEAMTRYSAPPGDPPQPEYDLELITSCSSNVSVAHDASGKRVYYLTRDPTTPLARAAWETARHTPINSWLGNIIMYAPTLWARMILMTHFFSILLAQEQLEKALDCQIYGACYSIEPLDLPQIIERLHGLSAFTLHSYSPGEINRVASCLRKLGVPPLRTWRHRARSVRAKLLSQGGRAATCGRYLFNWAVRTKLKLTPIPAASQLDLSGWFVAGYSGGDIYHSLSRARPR
Text: as §1

HCV-NS5BΔ21 RdRp mutants [3] = molecular target: T2, HCV-NS5BΔ21 RdRp mutants (Hepatitis C virus genotype 1b, UniProt O92972, F2581Y); type: biochemical; conditions: F162Y variant (33% of wild-type activity at baseline)
T2 construct: His6 (N); made in house; host or cells: Escherichia coli C41(DE3)
T2 sequence (O92972 2420-2989 F2581Y): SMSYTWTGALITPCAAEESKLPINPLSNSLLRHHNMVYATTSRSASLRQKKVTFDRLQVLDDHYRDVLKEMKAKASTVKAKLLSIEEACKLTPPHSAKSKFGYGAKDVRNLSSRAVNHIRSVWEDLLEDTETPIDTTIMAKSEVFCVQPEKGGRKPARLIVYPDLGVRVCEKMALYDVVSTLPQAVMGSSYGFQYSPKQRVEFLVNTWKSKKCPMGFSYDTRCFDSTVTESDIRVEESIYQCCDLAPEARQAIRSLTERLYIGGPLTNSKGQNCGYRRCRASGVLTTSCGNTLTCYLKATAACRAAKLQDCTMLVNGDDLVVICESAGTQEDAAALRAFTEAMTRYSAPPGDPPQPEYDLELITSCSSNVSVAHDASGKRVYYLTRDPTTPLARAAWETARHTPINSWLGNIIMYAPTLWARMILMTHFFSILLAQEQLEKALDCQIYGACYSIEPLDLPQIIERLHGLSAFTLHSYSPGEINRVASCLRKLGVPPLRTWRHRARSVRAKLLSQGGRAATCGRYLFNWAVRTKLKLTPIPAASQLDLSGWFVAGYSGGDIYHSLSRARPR
Text: as §1

[4] = molecular target: T3, RNA binding to HCV-NS5BΔ21 (Hepatitis C virus genotype 1b, UniProt O92972); test: HCV-NS5BΔ21-RNA ELISA assay; conditions: dose-dependent
T3 construct: made in house; host or cells: Escherichia coli C41(DE3)
T3 sequence (O92972 2420-2989, stated change not applied): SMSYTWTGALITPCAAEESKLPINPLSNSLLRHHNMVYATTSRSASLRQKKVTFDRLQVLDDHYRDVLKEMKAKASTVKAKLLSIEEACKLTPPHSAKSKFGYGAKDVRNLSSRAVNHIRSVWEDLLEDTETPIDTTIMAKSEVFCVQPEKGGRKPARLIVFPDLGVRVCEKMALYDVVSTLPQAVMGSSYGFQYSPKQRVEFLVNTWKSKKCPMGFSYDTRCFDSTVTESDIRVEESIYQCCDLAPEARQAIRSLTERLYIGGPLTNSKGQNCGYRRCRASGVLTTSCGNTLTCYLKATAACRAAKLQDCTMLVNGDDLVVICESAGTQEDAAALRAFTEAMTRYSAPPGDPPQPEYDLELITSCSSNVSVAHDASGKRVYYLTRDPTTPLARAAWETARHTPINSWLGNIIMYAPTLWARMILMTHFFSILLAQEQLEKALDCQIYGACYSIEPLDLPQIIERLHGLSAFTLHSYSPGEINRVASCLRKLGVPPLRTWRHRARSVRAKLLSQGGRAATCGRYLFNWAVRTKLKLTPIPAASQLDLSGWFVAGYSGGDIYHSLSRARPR
Procedure: Ninety-six-well plates were coated with streptavidin (100 μg/ml in 0.1 M NaHCO3, 50 μl/well) overnight at 4°C. The plates were washed six times with 200 μl phosphate-buffered saline (PBS)-T and blocked with 50 μl of 3% BSA and 0.1 μg/ml of streptavidin in PBS overnight at 4°C, then four times with 0.1% PBS-Tween. A mix of 5 pmol of biotinylated RNA and 0.5 μg of HCV-NS5BΔ21 previously incubated for 30 min at 37°C in a binding buffer containing 50 mM Tris (pH 7.5), 150 mM NaCl, 0.02 mg/ml yeast tRNA and 0.2 mg/ml BSA was added (50 μl/well) and incubated 1 h at room temperature. The plates were washed six times with 200 μl/well PBS-T, and the 6His mAB/HRP conjugate (Clontech, Mountain View, CA, USA) in PBS 1:1000 (50 μl/well) was added and incubated for 1 h at room temperature. The plates were washed six times with 200 μl/well PBS-T. A mix of enhanced chemiluminescence reagent was added (50 μl/well) and luminescence was measured.

[5] = molecular target: T4, HCV-NS5BΔ21 RdRp genotype 2a (strain JFH1) (Hepatitis C virus genotype 2a, UniProt Q99IB8); test: cell-free HCV-NS5BΔ21 polymerase assay, genotype 2a (JFH1); type: biochemical
T4 construct: His6 (N); made in house; host or cells: Escherichia coli C41(DE3)
Procedure: (§2) The HCV RdRps (NS5B protein) from reference strains H77 (genotype 1a), J4 (genotype 1b) and JFH1 (genotype 2a), truncated of their 21 C-terminal amino acids to ensure solubility (NS5BΔ21) and carrying a hexahistidine tag (His6-Tag) at their N-terminus, were expressed in Escherichia coli C41(DE3) and purified as previously described ([20]). Briefly, cultures were grown at 37°C for ∼1 h and induced with 1 mM isopropyl β-D-thiogalactoside for 4 h at 37°C. […] After sonication, cell lysates were clarified by centrifugation, and chromatography was performed on a Ni-NTA column (Qiagen, Hilden, Germany). The bound protein was eluted in 1 ml fractions with a buffer containing 50 mM NaH2PO4 (pH 8.0), 500 mM NaCl and 250 mM imidazole. NS5BΔ21-enriched fractions were selected using a Bradford colorimetric assay, and HCV-NS5BΔ21 purity was determined by Coomassie-stained sodium dodecyl sulfate-polyacrylamide electrophoresis gel (SDS-PAGE) analysis. Purified NS5BΔ21 fractions were pooled and dialyzed against a buffer containing 5 mM Tris (pH 7.5), 0.2 M sodium acetate, 1 mM DTT, 1 mM ethylenediaminetetraacetic acid (EDTA) and 10% glycerol. […]

RNA duplex = RNA duplex fluorescence assay; conditions: 20 μM compound
[6] = system: HCV NS5B protein expression; test: Western blot analysis of NS5B in Con1 replicon cells; type: cell-based, hepatitis C virus; conditions: Huh7.5 cells, 72 h, increasing concentrations
Procedure: HCV Con1 replicon-harboring cells were seeded at a density of 90 000 cells per well in 6-well plates. […] NS5B and actin were detected using specific monoclonal antibodies (Enzo Life Sciences, Firmingdale, NY, USA and Sigma Aldrich, Saint Louis, MO, USA, respectively).

[7] = system: HCV genotype 1b subgenomic replicon Con1; test: microbe, parasite or virus in culture; conditions: Hepatitis C virus, Huh7.5, 72 h, read-out: EC50 replicon replication
Procedure: Each data point represents the average of at least three replicates in cell culture. HCV RNA level reductions after treatment were assessed by comparing the level of HCV RNA in compound-treated cells to that of control cells treated with 1% DMSO.

[8] = molecular target: T5, HCV-NS5BΔ21 RdRp genotype 1b (strain J4) (Hepatitis C virus genotype 1b, UniProt O92972); test: biochemical; set-up: His6 (N); made in house; host or cells: Escherichia coli C41(DE3)
T5 sequence (O92972 2420-2989, stated change not applied): as above
Procedure: The HCV RdRps (NS5B protein) from reference strains H77 (genotype 1a), J4 (genotype 1b) and JFH1 (genotype 2a), truncated of their 21 C-terminal amino acids to ensure solubility (NS5BΔ21) and carrying a hexahistidine tag (His6-Tag) at their N-terminus, were expressed in Escherichia coli C41(DE3) and purified as previously described ([20]). Briefly, cultures were grown at 37°C for ∼1 h and induced with 1 mM isopropyl β-D-thiogalactoside for 4 h at 37°C. […] After sonication, cell lysates were clarified by centrifugation, and chromatography was performed on a Ni-NTA column (Qiagen, Hilden, Germany). The bound protein was eluted in 1 ml fractions with a buffer containing 50 mM NaH2PO4 (pH 8.0), 500 mM NaCl and 250 mM imidazole. NS5BΔ21-enriched fractions were selected using a Bradford colorimetric assay, and HCV-NS5BΔ21 purity was determined by Coomassie-stained sodium dodecyl sulfate-polyacrylamide electrophoresis gel (SDS-PAGE) analysis. Purified NS5BΔ21 fractions were pooled and dialyzed against a buffer containing 5 mM Tris (pH 7.5), 0.2 M sodium acetate, 1 mM DTT, 1 mM ethylenediaminetetraacetic acid (EDTA) and 10% glycerol.
as §1

[9] = system: genotype 2a infectious J6/JFH1 strain; test: J6/JFH1 infection in cell culture (HCVcc, Huh7.5 cells); type: cell-based; conditions: Hepatitis C virus, Huh7.5, 72 h, read-out: EC50 J6/JFH1 replication
Procedure: The plasmid pFL-R-luc2A-ubi-J6/JFH1, containing the full-length cDNA of the chimeric J6/JFH1 HCV genotype 2a clone and the Renilla luciferase gene, was used to generate infectious HCV particles (HCVcc) in Huh7.5 cell culture. Huh7.5 cells were seeded in 48-well plates at a density of 10 000 cells/well, infected 24 h later with 100 μl of HCVcc and incubated overnight at 37°C. After incubation, the supernatants were removed and J6/JFH1-infected cells were washed with fresh medium. Increasing concentrations of the tested compounds were added in a medium containing 1% DMSO, and the cells were incubated 72 h at 37°C. Then, the cells were washed once with Dulbecco's PBS (Invitrogen), and 75 μl Renilla lysis buffer (Promega) was added to each well. Note that 20 μl of lysate was mixed with the luciferase assay substrate, as specified by the manufacturer. Luciferase activity was measured for 10 s in a Berthold luminometer.

[10] = molecular target: T6, HCV-NS5BΔ21 RdRp genotype 1a (strain H77) (Hepatitis C virus genotype 1a, UniProt P27958); test: cell-free HCV-NS5BΔ21 polymerase assay, genotype 1a (H77); type: biochemical
T6 construct: His6 (N); made in house; host or cells: Escherichia coli C41(DE3)
T6 sequence (P27958 2421-2990, stated change not applied): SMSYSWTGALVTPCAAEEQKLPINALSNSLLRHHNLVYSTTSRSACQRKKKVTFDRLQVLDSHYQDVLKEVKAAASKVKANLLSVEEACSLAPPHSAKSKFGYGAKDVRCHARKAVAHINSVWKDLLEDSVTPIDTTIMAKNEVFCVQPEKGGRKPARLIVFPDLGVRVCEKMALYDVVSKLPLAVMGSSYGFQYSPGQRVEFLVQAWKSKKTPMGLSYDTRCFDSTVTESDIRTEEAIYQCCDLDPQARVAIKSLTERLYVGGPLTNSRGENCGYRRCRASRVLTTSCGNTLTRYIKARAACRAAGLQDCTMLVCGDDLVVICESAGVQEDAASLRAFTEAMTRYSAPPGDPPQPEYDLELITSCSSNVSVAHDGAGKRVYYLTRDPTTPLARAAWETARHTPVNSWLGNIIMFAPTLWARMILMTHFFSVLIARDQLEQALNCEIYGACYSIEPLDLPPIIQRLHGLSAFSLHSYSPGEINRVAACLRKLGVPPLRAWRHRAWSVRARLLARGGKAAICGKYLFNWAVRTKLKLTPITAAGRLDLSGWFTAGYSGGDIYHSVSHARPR
Procedure: as §2

[11] = molecular target: T3, RNA binding to HCV-NS5BΔ21; test: RNA binding assay (EMSA); conditions: fixed concentration of HCV-NS5BΔ21, increasing compound
Procedure: RNA binding was studied by means of the electrophoretic mobility shift assay (EMSA) with minor modifications. Briefly, 0.5 μg/ml of HCV-NS5BΔ21 was incubated with 1 μg of a 500 bp RNA at 37°C for 30 min in 20 μl of a binding buffer containing 10 mM Tris pH 7.5, 1 mM EDTA, 100 mM KCl, 0.1 mM DTT, 5% vol/vol glycerol, 10 μg/ml bovine serum albumin (BSA), in the presence of increasing concentrations of the tested compound. Samples were then loaded onto a non-denaturing agarose gel. The gel was incubated 20 min in SYBR green EMSA Nucleic Acid Gel Stain (Invitrogen, Carlsbad, CA, USA). After washing, the gel was visualized under ultraviolet transillumination.

[12] = molecular target: T5, HCV-NS5BΔ21 RdRp genotype 1b (strain J4); test: biochemical; conditions: range over three genotypes; read-out: IC50 in the enzyme assay, genotypes 1b, 1a and 2a
Procedure: as §2

How did the change of susceptibility (HCV-NS5BΔ21 RdRp mutants [1]) turn out when `O=c1c(O)c(-c2ccc(O)c(O)c2)oc2cc(O)c(O)c(O)c12` [Quercetagetin] was run?
Its change of susceptibility is “No change”.

What about the “susceptibility of V116I variant” value (HCV-NS5BΔ21 RdRp mutants [2]) of the same molecule?
Its value is “did not reduce”.

What about the “reduction of catalytic activity by the compound” value (HCV-NS5BΔ21 RdRp mutants [3]) of the same molecule?
Its value is 3 fold.

What about the “inhibition of RNA binding, EC50” value [4] of the same molecule?
Its value is “of the same order as that in the enzyme assay”.

What about the IC50 [5] of the same molecule?
Its IC50 is 6.1 ± 1.6 µM.

What about the RNA duplex formation (RNA duplex) of the same molecule?
The RNA duplex formation was “not inhibited”.

What about the NS5B protein expression [6] of the same molecule?
Its NS5B protein expression is “inhibited NS5B protein expression in a dose-dependent manner”.

And the EC50 [7]?
Its EC50 is 5.4 ± 3.3 µM.

What about the inhibition at 20 µM ([8]; 20 μM compound) of the same molecule?
The inhibition at 20 µM was 85.6%.

And the “Slope of fluorescence increase” value ([8]; 20 μM compound, no treatment control slope 62.0)?
The value was 8.9.

What about the IC50 ([8]; genotype 1b (strain J4), read-out: IC50 HCV-NS5BΔ21 polymerase activity) of the same molecule?
Its IC50 is 4.3 ± 0.7 µM.

What about the “mode of inhibition (double-reciprocal plots)” value ([8]; increasing ATP or GTP with poly-U or poly-C) of the same molecule?
The value was “non-competitive”.

And the EC50 [9]?
The EC50 was 40.2 ± 17.7 µM.

And the IC50 [10]?
The IC50 was 2.8 ± 0.4 µM.

And the “amount of free RNA” value [11]?
The value was “increased in a quercetagetin concentration-dependent manner”.

What about the IC50 [12] of the same molecule?
The IC50 was 2.8 to 6.1 µM.
